pIC50: −log10 of the molar value.
Target: fMet-Leu-Phe receptor (Homo sapiens) (UniProt P21462)
Assay: Inhibitory concentration against fMLP receptor with [3H]- fMLP in receptor binding assay

Sequence of fMet-Leu-Phe receptor (Homo sapiens) (P21462 whole entry, looked up): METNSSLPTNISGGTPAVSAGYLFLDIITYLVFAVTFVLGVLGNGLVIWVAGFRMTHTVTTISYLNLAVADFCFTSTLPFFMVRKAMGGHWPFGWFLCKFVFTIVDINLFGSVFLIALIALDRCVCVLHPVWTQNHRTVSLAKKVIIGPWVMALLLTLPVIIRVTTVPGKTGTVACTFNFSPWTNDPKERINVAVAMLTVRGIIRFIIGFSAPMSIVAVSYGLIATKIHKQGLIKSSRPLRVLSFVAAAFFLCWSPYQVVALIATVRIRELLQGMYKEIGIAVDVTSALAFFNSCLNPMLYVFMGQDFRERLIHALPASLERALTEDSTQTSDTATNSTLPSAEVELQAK

pIC50: 5.49
SMILES: O=C(O)/C=C/c1nc(CSc2c(Cl)cccc2Cl)ccc1OCCc1ccccc1 [Ticolubant]
